For orientation: EC50 means the concentration needed to bring the measured effect to its halfway point. The melting point is the temperature of the solid-liquid transition.

In series [1] the test system is Ralstonia solanacearum. The following applies: R. solanacearum, previously reported analog, cited from earlier work.
For series [2], the system named is Xanthomonas oryzae pv. oryzae. The following applies: X. oryzae, previously reported analog, cited from earlier work.
Series [3] relates to Xanthomonas oryzae pv. oryzae. The series can be described thus: microbe, parasite or virus in culture. The series is classed as cell-based. The note with it: Xanthomonas oryzae; for inhibition at 100 µg/mL: read-out: Inhibition rate, X. oryzae, 100 μg/mL, average of three replicates; for inhibition at 200 µg/mL: read-out: Inhibition rate, X. oryzae, 200 μg/mL, average of three replicates.

For series [4], the system named is X. oryzae in rice plant. Format: in vivo, Xanthomonas oryzae pv. oryzae. The following applies: 200 μg/mL, 14 days after spraying.
Series [5] has as its system Xanthomonas axonopodis pv. citri. Put plainly: microbe, parasite or virus in culture. Format: cell-based. The following applies: Xanthomonas axonopodis; for inhibition at 100 µg/mL / inhibition at 200 µg/mL: read-out: Inhibition rate.
Series [6] concerns rice seeds (Fengyou Xiangzhan).
Series [7] deals with Ralstonia solanacearum. The series can be described thus: microbe, parasite or virus in culture. The series is classed as cell-based. The following applies: for EC50: R. solanacearum; for inhibition at 100 µg/mL / inhibition at 200 µg/mL: read-out: Inhibition rate.
The test system of series [8] is tobacco leaves. The note with it: for Necrosis (lesion diameter) on tobacco leaves: Nicotiana benthamiana (tobacco).
Where [9] appears, read: 50 to 300 μM, four days after inoculation.

≈ marks a conversion by molar mass, not a printed value. Where “and” joins values, the source holds several entries; their conditions need not be identical. Equal entries are not always repeated. Where two headings read alike, the source gives them in different places.

Regarding `CS(=O)(=O)c1nnc(-c2ccc(F)cc2)o1` [C00001 (R = F, X = No Atom), 2-(4-fluorophenzyl)-5-(methylsulfonyl)-1,3,4-oxadiazole], the EC50 in [1] (X = No Atom) is 8.29 ± 0.56 ^14 μg/mL; in series [2] (X = No Atom), 9.89 ± 1.52 ^16 μg/mL.
In the case of `CS(=O)(=O)c1nnc(Cc2ccc(Cl)cc2)o1` [C00001 (R = 4-Cl, X = CH2)], the EC50 in series [2] (X = CH2) was 12.23 ± 1.45 ^15 μg/mL.
`CS(=O)(=O)c1nnc(Cc2ccc(Cl)cc2Cl)o1` [C00001 (R = 2,4-di Cl, X = CH2)]: the EC50 in series [1] (X = CH2) is recorded as 59.9 ^26 μg/mL; in [2] (X = CH2) it was 1.96 ± 0.99 ^15 μg/mL.
As to `CS(=O)(=O)c1nnc(COc2ccc(Cl)cc2)o1` [Compound 5I-2, 2-((4-Chlorophenoxy)methyl)-5-(methylsulfonyl)-1,3,4-oxadiazole], the melting point is 113 to 114 °C. Moreover, in series [3], the response was half-maximal at 1.44 ± 0.18 µg/mL (≈ 4.99 µM) (EC50), the inhibition at 100 µg/mL stood at 100% and the inhibition at 200 µg/mL came to 100%. Also, in series [4], the “Disease Index” value was 23.8; the Morbidity amounted to 100.0%; the “Protective Efficiency” value is 77.7% and 77.7 ± 3.4%. For the same compound, in [5], the EC50 stood at 31.4 ± 3.56 µg/mL (≈ 109 µM), the inhibition at 100 µg/mL worked out at 76% and the inhibition at 200 µg/mL is 88%. Moreover, the “Phenotypic effect on rice seedlings, root growth and shoot development (in words)” value (from here on “Phenotypic effect on rice seedlings”) in series [6] (concentration (1–300 μM)) is reported as “no apparently phytotoxicity”. The “Phenotypic effect on rice seedlings” value in series [6] (in vivo) is reported as “predominantly inhibited root growth while allowing moderate shoot development”. Besides, in [7] (Ralstonia solanacearum), the EC50 was found to be 13.4 ± 1.54 µg/mL (≈ 46.5 µM), the inhibition at 100 µg/mL stood at 100% and the inhibition at 200 µg/mL came out at 100%. For the same compound, the “Phytotoxic effect on tobacco plant (in words)” value (“Phytotoxic effect” for short) in [8] (setting [9]) was “no apparently phytotoxicity”. For the same compound, in series [8] (in vivo), the “Necrosis (lesion diameter) on tobacco leaves” value is on record as 0.2–0.3 cm and the “Phytotoxic effect” value is “no or negligible phytotoxic effect”.
Regarding `CS(=O)(=O)c1nnc(COc2ccc(F)cc2)o1` [Compound 5I-1, 2-(4-Fluorophenoxymethyl)-5-(methylsulfonyl)-1,3,4-oxadiazole], the melting point fell in the range of 108 to 110 °C. For the same compound, in series [3], the response was half-maximal at 0.45 ± 0.06 µg/mL (≈ 1.65 µM) (EC50), the inhibition at 100 µg/mL came to 100% and the inhibition at 200 µg/mL is 100%. In addition, in [4], the “Disease Index” value is 15.6; the Morbidity was 100.0%; the “Protective Efficiency” value was 90.4% and 90.4 ± 2.8%. Further, in series [5], the EC50 turned out to be 80.5 ± 5.38 µg/mL (≈ 296 µM), the inhibition at 100 µg/mL was 72% and the inhibition at 200 µg/mL was found to be 80%. In addition, the “Phenotypic effect on rice seedlings” value in series [6] (Fengyou Xiangzhan, rice, in vivo) was “barely effected root growth or inhibited shoot development at concentration 1–100 μM”. In addition, in series [6] (concentration (1–300 μM)), the “Phenotypic effect on rice seedlings” value is given as “no apparently phytotoxicity”. The compound also came in with an EC50 in series [7] of 1.97 ± 0.23 µg/mL (≈ 7.24 µM). Besides, in series [7] (Ralstonia solanacearum), it took 1.67 µg/mL (≈ 6.13 µM) to reach a half-maximal effect (EC50), the inhibition at 100 µg/mL was determined as 100% and the inhibition at 200 µg/mL stood at 100%. In addition, the “Phytotoxic effect” value in series [8] (setting [9]) is “no apparently phytotoxicity”. In addition, in series [8] (in vivo), the “Necrosis (lesion diameter) on tobacco leaves” value is listed as 0.2–0.3 cm and the “Phytotoxic effect” value was “no or negligible phytotoxic effect”.
Consider `CS(=O)(=O)c1nnc(-c2ccc(Cl)cc2Cl)o1` [C00001 (R = 2,4-di Cl, X = No Atom)], for which the EC50 in series [1] (X = No Atom) was 16.55 ± 1.12 ^14 μg/mL; in series [2] (X = No Atom) it was 52.14 ± 1.05 ^16 μg/mL.
With `CS(=O)(=O)c1nnc(-c2ccc(Cl)cc2)o1` [C00001 (R = 4-Cl, X = No Atom)], the EC50 is given as 120.90 ± 2.6 ^14 μg/mL in series [1] (X = No Atom) and 23.21 ± 0.98 ^16 μg/mL in [2] (X = No Atom).
On to `CS(=O)(=O)c1nnc(Cc2ccc(F)cc2)o1` [C00001 (R = F, X = CH2), 2-(4-fluorobenzyl)-5-(methylsulfonyl)-1,3,4-oxadiazole], for which the EC50 in [2] (X = CH2) is on record as 1.07 ± 0.68 ^15 μg/mL.

The record behind these values is article PMC6155626 (Molecules : A Journal of Synthetic Chemistry and Natural …, 2016).
